Laboratory results reported in PMC8213057, “Targeting ALK2: An Open Science Approach to Developing Therapeutics for the Treatment of Diffuse Intrinsic Pontine Glioma” (Journal of Medicinal Chemistry, 2020).
Where “and” joins values, the source holds several entries; their conditions need not be identical. Identical values can stand only once.

Tests used:
MLK4 = MLK4 (Homo sapiens, UniProt Q5TCX8); settings: 1 μM; Run 1, Run 2
CDK3/cyclin E = CDK3/cyclin E (Homo sapiens, UniProt Q00526); settings: 1 μM; Run 1, Run 2
PKN2/PRK2 = PKN2/PRK2 (Homo sapiens, UniProt Q16513); settings: 1 μM; Run 1, Run 2
WEE1 = WEE1 (Homo sapiens, UniProt P30291); settings: 1 μM; Run 1, Run 2
Chain of WEE1 (P30291 whole entry, species assumed): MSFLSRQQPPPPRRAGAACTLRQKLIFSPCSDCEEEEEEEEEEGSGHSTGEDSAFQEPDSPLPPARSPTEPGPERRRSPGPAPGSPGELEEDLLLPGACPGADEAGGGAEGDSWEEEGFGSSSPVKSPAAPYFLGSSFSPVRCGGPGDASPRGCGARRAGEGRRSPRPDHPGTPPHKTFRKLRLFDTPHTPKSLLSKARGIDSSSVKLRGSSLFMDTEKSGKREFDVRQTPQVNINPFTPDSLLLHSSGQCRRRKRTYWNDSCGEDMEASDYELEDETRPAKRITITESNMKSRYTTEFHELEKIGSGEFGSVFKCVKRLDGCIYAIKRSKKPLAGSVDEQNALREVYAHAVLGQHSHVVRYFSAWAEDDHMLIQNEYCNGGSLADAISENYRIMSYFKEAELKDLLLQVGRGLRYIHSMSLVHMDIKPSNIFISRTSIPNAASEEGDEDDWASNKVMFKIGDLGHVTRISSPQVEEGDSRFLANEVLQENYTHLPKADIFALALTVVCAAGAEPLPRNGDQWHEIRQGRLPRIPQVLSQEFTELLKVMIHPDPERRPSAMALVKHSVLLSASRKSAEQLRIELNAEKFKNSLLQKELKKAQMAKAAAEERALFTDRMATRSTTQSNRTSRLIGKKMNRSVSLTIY

RIPK2 = RIPK2 (Homo sapiens, UniProt O43353); settings: 1 μM; Run 1, Run 2
Chain of RIPK2 (O43353 whole entry): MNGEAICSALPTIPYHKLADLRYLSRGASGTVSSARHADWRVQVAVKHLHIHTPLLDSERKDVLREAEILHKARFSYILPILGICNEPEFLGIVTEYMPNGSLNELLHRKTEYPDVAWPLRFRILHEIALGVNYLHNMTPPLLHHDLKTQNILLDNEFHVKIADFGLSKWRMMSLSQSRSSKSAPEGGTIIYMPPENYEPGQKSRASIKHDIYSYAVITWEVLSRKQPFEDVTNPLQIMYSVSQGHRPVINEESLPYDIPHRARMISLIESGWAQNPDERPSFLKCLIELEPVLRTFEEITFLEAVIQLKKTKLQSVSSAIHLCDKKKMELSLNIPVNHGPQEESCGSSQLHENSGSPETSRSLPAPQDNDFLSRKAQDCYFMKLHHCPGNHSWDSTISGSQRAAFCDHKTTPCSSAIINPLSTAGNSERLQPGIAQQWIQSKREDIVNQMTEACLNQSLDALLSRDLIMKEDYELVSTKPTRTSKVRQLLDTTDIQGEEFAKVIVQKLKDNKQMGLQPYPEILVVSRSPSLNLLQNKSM

CK2a2 = CK2a2 (Homo sapiens, UniProt P19784); settings: 1 μM; Run 1, Run 2
Chain of CK2a2 (P19784 whole entry): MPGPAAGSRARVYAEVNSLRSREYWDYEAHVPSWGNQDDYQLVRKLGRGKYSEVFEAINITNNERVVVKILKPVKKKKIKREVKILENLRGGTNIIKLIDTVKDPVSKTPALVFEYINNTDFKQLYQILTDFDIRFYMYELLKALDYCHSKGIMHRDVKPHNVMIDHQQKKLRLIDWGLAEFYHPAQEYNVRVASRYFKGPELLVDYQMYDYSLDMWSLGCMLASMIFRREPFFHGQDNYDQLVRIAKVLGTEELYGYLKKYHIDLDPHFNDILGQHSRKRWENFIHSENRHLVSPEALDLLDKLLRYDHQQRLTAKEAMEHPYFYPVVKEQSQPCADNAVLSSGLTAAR

DLK/MAP3K12 = target: T1, DLK/MAP3K12 (Homo sapiens, UniProt Q12852); test: biochemical; settings: read-out: % enzyme activity, 1 μM; Run 1, Run 2
T1 sequence (Q12852 1-859): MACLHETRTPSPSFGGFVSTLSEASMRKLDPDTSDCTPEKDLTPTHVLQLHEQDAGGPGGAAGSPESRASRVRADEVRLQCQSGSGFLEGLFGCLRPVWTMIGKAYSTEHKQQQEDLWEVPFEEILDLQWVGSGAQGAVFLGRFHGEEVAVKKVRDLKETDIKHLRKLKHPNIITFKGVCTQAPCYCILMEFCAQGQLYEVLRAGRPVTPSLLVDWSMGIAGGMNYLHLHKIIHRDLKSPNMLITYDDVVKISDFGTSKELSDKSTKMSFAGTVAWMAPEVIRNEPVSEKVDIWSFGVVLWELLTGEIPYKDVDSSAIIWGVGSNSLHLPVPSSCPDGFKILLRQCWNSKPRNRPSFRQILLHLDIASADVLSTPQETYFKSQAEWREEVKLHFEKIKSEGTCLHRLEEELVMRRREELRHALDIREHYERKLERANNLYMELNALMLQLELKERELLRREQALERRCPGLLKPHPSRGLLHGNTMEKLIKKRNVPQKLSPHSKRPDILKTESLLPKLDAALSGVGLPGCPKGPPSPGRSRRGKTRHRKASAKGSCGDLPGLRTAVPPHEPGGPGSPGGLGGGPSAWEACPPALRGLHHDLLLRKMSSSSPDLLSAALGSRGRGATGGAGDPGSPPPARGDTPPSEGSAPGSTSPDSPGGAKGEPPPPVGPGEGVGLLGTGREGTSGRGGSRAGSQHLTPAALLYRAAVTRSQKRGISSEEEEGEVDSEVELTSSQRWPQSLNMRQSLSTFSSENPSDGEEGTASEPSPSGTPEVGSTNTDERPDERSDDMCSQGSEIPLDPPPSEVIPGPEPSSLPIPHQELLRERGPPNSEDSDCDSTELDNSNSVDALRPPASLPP

ASK1/MAP3K5 = target: T2, ASK1/MAP3K5 (Homo sapiens, UniProt Q99683); settings: 1 μM; Run 1, Run 2
T2 sequence (Q99683 1-1374): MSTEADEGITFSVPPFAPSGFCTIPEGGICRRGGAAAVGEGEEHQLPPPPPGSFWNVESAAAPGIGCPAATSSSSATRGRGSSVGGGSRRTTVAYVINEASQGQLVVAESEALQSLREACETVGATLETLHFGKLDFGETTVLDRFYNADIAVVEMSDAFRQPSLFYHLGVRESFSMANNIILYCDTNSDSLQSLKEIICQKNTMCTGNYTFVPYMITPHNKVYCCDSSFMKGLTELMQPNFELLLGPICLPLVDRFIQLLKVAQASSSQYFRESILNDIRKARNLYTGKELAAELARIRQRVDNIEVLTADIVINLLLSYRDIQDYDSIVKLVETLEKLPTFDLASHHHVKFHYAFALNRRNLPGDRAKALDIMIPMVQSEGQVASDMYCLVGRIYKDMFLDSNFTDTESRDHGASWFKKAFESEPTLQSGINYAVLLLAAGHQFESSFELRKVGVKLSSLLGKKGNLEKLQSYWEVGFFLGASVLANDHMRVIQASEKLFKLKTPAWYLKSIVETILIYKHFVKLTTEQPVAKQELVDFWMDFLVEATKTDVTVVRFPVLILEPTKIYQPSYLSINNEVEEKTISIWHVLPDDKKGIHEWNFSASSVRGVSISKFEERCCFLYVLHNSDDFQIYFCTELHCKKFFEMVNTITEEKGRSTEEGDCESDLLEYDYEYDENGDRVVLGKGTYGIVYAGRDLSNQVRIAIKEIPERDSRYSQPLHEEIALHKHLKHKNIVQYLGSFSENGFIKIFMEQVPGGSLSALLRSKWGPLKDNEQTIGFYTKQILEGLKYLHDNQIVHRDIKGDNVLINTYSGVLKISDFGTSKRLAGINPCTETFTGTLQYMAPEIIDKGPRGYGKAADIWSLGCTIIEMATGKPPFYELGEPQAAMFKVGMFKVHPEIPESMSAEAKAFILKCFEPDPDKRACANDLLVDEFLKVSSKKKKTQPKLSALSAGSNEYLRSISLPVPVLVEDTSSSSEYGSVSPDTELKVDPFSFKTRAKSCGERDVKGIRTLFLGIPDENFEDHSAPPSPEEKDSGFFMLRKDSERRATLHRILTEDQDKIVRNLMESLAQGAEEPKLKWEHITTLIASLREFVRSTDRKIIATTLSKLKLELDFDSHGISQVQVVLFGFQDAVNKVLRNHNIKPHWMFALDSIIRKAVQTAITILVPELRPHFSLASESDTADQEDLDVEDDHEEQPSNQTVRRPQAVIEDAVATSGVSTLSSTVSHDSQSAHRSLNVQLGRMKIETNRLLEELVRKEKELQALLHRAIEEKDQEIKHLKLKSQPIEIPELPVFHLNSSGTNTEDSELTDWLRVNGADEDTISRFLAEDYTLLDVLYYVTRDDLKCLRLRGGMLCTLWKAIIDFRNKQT

JAK1 = JAK1 (Homo sapiens, UniProt P23458); test: biochemical; settings: read-out: % enzyme activity, 1 μM; Run 1, Run 2
Chain of JAK1 (P23458 whole entry): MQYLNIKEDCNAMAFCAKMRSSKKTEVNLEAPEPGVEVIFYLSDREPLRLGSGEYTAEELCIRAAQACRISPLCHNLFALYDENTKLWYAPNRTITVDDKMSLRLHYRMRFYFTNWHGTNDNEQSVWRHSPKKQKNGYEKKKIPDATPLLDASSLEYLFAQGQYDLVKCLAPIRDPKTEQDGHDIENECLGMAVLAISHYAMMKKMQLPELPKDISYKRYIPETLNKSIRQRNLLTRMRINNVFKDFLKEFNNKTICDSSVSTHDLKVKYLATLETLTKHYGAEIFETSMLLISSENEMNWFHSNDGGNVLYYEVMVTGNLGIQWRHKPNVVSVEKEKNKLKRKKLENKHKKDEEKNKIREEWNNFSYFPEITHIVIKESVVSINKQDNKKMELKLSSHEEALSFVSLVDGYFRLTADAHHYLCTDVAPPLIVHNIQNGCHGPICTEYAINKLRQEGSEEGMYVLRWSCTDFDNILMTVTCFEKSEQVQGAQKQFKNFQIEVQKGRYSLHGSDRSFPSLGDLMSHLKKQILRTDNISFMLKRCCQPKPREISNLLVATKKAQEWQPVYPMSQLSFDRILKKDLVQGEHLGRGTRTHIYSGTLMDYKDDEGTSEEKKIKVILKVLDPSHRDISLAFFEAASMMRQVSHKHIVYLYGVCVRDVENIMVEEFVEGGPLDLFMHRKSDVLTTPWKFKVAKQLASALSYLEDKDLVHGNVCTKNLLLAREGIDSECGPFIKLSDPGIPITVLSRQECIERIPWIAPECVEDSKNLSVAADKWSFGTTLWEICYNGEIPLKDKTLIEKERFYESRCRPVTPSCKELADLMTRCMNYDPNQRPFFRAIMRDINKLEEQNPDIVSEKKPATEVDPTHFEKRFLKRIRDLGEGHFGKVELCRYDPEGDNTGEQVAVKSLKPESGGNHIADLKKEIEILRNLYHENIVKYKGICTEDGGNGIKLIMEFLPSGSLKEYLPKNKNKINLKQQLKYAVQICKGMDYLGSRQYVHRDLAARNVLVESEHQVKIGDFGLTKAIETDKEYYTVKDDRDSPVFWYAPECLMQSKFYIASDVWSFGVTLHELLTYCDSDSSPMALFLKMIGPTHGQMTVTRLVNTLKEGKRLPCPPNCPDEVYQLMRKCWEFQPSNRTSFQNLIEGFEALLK

SRMS = SRMS (Homo sapiens, UniProt Q9H3Y6); settings: 1 μM; Run 1, Run 2
Chain of SRMS (Q9H3Y6 whole entry): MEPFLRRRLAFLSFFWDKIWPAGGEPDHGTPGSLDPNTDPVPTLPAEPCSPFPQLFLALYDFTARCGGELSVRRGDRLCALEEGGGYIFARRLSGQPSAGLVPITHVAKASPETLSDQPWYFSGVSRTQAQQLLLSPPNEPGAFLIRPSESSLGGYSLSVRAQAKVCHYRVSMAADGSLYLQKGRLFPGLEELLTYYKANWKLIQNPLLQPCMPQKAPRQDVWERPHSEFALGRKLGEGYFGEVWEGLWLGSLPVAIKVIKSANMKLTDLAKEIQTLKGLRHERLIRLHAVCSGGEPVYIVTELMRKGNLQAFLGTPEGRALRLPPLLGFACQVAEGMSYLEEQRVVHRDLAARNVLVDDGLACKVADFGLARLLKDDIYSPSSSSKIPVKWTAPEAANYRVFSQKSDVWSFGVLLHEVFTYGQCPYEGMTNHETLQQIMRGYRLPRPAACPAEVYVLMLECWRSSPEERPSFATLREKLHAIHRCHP

CAMK1a = CAMK1a (Homo sapiens, UniProt Q14012); test: biochemical; settings: read-out: % enzyme activity, 1 μM; Run 1, Run 2
Chain of CAMK1a (Q14012 whole entry): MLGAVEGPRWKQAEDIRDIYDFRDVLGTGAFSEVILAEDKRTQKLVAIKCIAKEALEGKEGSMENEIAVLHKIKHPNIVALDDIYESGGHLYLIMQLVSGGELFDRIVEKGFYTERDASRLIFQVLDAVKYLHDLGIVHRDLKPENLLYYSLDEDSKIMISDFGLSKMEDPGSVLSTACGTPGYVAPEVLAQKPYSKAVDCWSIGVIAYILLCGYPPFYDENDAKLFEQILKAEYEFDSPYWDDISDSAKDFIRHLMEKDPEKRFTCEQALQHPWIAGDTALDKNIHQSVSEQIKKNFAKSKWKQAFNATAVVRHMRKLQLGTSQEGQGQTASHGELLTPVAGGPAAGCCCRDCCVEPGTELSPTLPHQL

MSK1/RPS6KA5 = MSK1/RPS6KA5 (Homo sapiens, UniProt O75582); test: biochemical; settings: read-out: % enzyme activity, 1 μM; Run 1, Run 2
Chain of MSK1/RPS6KA5 (O75582 whole entry): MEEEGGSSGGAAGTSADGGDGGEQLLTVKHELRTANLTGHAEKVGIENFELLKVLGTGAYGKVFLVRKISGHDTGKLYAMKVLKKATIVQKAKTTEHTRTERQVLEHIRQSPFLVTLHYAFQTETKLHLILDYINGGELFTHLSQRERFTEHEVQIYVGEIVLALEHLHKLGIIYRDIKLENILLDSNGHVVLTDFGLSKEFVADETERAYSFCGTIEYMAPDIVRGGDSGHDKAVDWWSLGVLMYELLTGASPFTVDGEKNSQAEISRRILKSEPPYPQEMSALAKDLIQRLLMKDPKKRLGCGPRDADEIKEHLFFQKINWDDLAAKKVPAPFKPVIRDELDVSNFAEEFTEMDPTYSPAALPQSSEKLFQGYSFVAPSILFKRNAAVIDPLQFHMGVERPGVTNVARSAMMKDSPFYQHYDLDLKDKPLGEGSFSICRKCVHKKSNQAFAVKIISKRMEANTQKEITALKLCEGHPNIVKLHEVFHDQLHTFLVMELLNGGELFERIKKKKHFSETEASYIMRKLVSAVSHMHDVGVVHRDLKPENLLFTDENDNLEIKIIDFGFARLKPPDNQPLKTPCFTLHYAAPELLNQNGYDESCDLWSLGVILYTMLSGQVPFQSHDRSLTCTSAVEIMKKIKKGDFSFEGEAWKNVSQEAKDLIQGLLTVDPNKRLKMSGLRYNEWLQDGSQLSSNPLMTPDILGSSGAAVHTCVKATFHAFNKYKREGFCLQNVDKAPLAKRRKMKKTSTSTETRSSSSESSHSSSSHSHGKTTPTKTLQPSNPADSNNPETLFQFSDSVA

FYN = FYN (Homo sapiens, UniProt P06241); test: biochemical; settings: read-out: % enzyme activity, 1 μM; Run 1, Run 2
Chain of FYN (P06241 whole entry): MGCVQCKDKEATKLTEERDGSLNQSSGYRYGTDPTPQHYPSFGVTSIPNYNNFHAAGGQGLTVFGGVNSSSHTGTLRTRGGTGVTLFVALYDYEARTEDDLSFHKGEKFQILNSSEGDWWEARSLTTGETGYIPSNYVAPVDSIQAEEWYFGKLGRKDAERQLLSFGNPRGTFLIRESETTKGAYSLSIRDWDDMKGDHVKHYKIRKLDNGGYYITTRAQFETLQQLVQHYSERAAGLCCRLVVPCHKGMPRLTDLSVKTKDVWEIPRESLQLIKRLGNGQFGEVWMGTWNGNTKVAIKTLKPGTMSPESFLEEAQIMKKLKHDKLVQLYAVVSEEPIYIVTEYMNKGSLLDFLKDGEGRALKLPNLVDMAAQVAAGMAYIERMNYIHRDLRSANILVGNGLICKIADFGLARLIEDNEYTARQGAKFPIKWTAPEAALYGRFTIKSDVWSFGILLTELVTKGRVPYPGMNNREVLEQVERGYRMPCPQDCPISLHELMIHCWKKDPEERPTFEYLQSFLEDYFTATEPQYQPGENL

| Structure (SMILES) | % enzyme activity (MLK4) [%] | % enzyme activity (CDK3/cyclin E) [%] | % enzyme activity (PKN2/PRK2) [%] | % enzyme activity (WEE1) [%] | % enzyme activity (RIPK2) [%] | % enzyme activity (CK2a2) [%] | remaining activity at 1 µM (DLK/MAP3K12) [%] | % enzyme activity (ASK1/MAP3K5) [%] | remaining activity at 1 µM (JAK1) [%] | % enzyme activity at 1 μM (TNK1) | % enzyme activity (SRMS) [%] | remaining activity at 1 µM (CAMK1a) [%] | remaining activity at 1 µM (MSK1/RPS6KA5) [%] | remaining activity at 1 µM (FYN) [%] |
| --- | --- | --- | --- | --- | --- | --- | --- | --- | --- | --- | --- | --- | --- | --- |
| COc1cc(-c2cncc(-c3ccc(N4CCN(C)CC4)cc3)c2C)cc(F)c1C(N)=O [Compound 26a, 2-Fluoro-6-methoxy-4-(4-methyl-5-(4-(4-methylpiperazin-1-yl)phenyl)pyridin-3-yl)benzamide] | 95.21 | 81.63 | 91.84 | 104.15 | 66.31 | 92.27 | 93.7 | 94.20 | 102 | 105% and 99.5% | 95.09 | 94.9 | 87.1 | 99.9 |
| COc1cc(-c2cncc(-c3ccc(N4C[C@@H](C)N(C)[C@@H](C)C4)cc3)c2C)cc(F)c1C(N)=O [Compound 26c, 2-Fluoro-6-methoxy-4-(4-methyl-5-(4-((3R,5S)-3,4,5-trimethylpiperazin-1-yl)phenyl)pyridin-3-yl)benzamide] | 93.38 | 78.38 | 95.77 | 99.73 | 89.10 | 98.98 | 99.2 | 96.09 | 101 | 98.6% and 98.2% | 95.91 | 97.5 | 90.5 | 97 |
